Compound: CC1(C)CCC(CN2CCN(c3ccc(C(=O)NS(=O)(=O)c4ccc(NCC5CCOCC5)c([N+](=O)[O-])c4)c(Oc4cnc5[nH]ccc5c4)c3)CC2)=C(c2ccc(Cl)cc2)C1 [Venetoclax] + N=C(N)NC(=N)NCCc1ccccc1 [Phenformin] (partner 250 µM)
Test: relative viability (nuclei count vs DMSO), 5 days (fraction); higher = more cells survive
Conditions: first compound 0.01 µM
In short: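 Relative viability equals treated-well nuclei counts divided by vehicle-well nuclei counts. Counts came from 4× images of lung cancer cell lines grown in 1536-well plates for 5 days after pin-tool dosing on the day after seeding. Dosing used one drug alone or a fixed anchor-drug dose plus five library-drug doses (not always all listed) in √10 steps, and values are medians of duplicate plates.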

| Cell Line | relative viability |
| --- | --- |
| BEN | 0.26 |
| HCC-15 | 0.451 |
| HCC-827 | 0.473 |
| NCI-H460 | 0.424 |
| LU99A | 0.852 |
| NCI-H2085 | 0.635 |
| A-427 | 0.292 |
| NCI-H520 | 0.477 |
| NCI-H838 | 0.63 |
| NCI-H1792 | 0.263 |
| NCI-H3122 | 0.366 |
| NCI-H1395 | 0.45 |
| 201T | 0.451 |
| NCI-H1993 | 0.603 |
| HOP-62 | 0.622 |
| NCI-H1355 | 0.436 |
| NCI-H2405 | 0.343 |

| Cell Line | relative viability |
| --- | --- |
| NCI-H1437 | 0.377 |
| NCI-H661 | 0.298 |
| CAL-12T | 0.543 |
| H3255 | 0.407 |
| NCI-H2347 | 0.316 |
| NCI-H1975 | 0.429 |
| NCI-H441 | 0.83 |
| NCI-H1650 | 0.515 |
| NCI-H1915 | 0.362 |
| NCI-H2087 | 0.461 |
| HCC-366 | 0.553 |
| NCI-H1793 | 0.457 |
| RERF-LC-KJ | 0.382 |
| EKVX | 0.229 |
| LCLC-103H | 0.335 |
| NCI-H1651 | 0.373 |

Same assay, conditions: first compound 0.03162 µM

| Cell Line | relative viability |
| --- | --- |
| BEN | 0.306 |
| HCC-15 | 0.48 |
| HCC-827 | 0.497 |
| NCI-H460 | 0.55 |
| LU99A | 0.92 |
| NCI-H2085 | 0.762 |
| A-427 | 0.322 |
| NCI-H520 | 0.507 |
| NCI-H838 | 0.591 |
| NCI-H1792 | 0.258 |
| NCI-H3122 | 0.361 |
| NCI-H1395 | 0.444 |
| 201T | 0.433 |
| NCI-H1993 | 0.494 |
| HOP-62 | 0.655 |
| NCI-H1355 | 0.474 |
| NCI-H2405 | 0.357 |

| Cell Line | relative viability |
| --- | --- |
| NCI-H1437 | 0.348 |
| NCI-H661 | 0.278 |
| CAL-12T | 0.575 |
| H3255 | 0.43 |
| NCI-H2347 | 0.449 |
| NCI-H1975 | 0.397 |
| NCI-H441 | 0.706 |
| NCI-H1650 | 0.479 |
| NCI-H1915 | 0.385 |
| NCI-H2087 | 0.471 |
| HCC-366 | 0.613 |
| NCI-H1793 | 0.354 |
| RERF-LC-KJ | 0.414 |
| EKVX | 0.236 |
| LCLC-103H | 0.298 |
| NCI-H1651 | 0.327 |

Same assay, conditions: first compound 0.1 µM

| Cell Line | relative viability |
| --- | --- |
| BEN | 0.302 |
| HCC-15 | 0.455 |
| HCC-827 | 0.344 |
| NCI-H460 | 0.478 |
| LU99A | 0.799 |
| NCI-H2085 | 0.688 |
| A-427 | 0.31 |
| NCI-H520 | 0.554 |
| NCI-H838 | 0.448 |
| NCI-H3122 | 0.341 |
| NCI-H1395 | 0.405 |
| 201T | 0.456 |
| NCI-H1993 | 0.473 |
| HOP-62 | 0.67 |
| NCI-H1355 | 0.467 |
| NCI-H2405 | 0.348 |

| Cell Line | relative viability |
| --- | --- |
| NCI-H1437 | 0.266 |
| NCI-H661 | 0.291 |
| CAL-12T | 0.567 |
| H3255 | 0.348 |
| NCI-H2347 | 0.433 |
| NCI-H1975 | 0.401 |
| NCI-H441 | 0.787 |
| NCI-H1650 | 0.541 |
| NCI-H1915 | 0.354 |
| NCI-H2087 | 0.387 |
| HCC-366 | 0.578 |
| NCI-H1793 | 0.271 |
| RERF-LC-KJ | 0.418 |
| EKVX | 0.223 |
| LCLC-103H | 0.352 |
| NCI-H1651 | 0.287 |

Same assay, conditions: first compound 0.3162 µM

| Cell Line | relative viability |
| --- | --- |
| BEN | 0.273 |
| HCC-15 | 0.448 |
| HCC-827 | 0.406 |
| NCI-H460 | 0.497 |
| LU99A | 0.878 |
| NCI-H2085 | 0.766 |
| A-427 | 0.348 |
| NCI-H520 | 0.566 |
| NCI-H838 | 0.636 |
| NCI-H1792 | 0.254 |
| NCI-H3122 | 0.339 |
| NCI-H1395 | 0.473 |
| 201T | 0.466 |
| NCI-H1993 | 0.48 |
| HOP-62 | 0.649 |
| NCI-H1355 | 0.468 |
| NCI-H2405 | 0.404 |

| Cell Line | relative viability |
| --- | --- |
| NCI-H1437 | 0.34 |
| NCI-H661 | 0.28 |
| CAL-12T | 0.555 |
| H3255 | 0.345 |
| NCI-H2347 | 0.424 |
| NCI-H1975 | 0.41 |
| NCI-H441 | 0.805 |
| NCI-H1650 | 0.534 |
| NCI-H1915 | 0.376 |
| NCI-H2087 | 0.407 |
| HCC-366 | 0.574 |
| NCI-H1793 | 0.36 |
| RERF-LC-KJ | 0.458 |
| EKVX | 0.239 |
| LCLC-103H | 0.313 |
| NCI-H1651 | 0.329 |

Same assay, conditions: first compound 1 µM

| Cell Line | relative viability |
| --- | --- |
| BEN | 0.264 |
| HCC-15 | 0.406 |
| HCC-827 | 0.394 |
| NCI-H460 | 0.461 |
| LU99A | 0.822 |
| NCI-H2085 | 0.655 |
| A-427 | 0.259 |
| NCI-H520 | 0.519 |
| NCI-H838 | 0.507 |
| NCI-H1792 | 0.246 |
| NCI-H3122 | 0.282 |
| NCI-H1395 | 0.428 |
| 201T | 0.411 |
| NCI-H1993 | 0.528 |
| HOP-62 | 0.64 |
| NCI-H1355 | 0.412 |
| NCI-H2405 | 0.379 |
| NCI-H1437 | 0.296 |
| NCI-H661 | 0.262 |
| CAL-12T | 0.539 |
| H3255 | 0.414 |
| NCI-H2347 | 0.33 |
| NCI-H1975 | 0.366 |
| NCI-H441 | 0.868 |
| NCI-H1650 | 0.377 |

Reference: the supplement of paper PMC10307832
